Experimental data from patent US20240254138A1, “TRICYCLIC PYRIMIDINES AS CYCLIN-DEPENDENT KINASE 7 (CDK7) INHIBITORS” (JANSSEN PHARMACEUTICA NV, priority 2021, published 2024).
Read-outs that look alike come from different tables or passages of the source.

Key:
[1] = tested on: RNA Polymerase II Serine 5 phosphorylation (Rpb1 CTD, downstream substrate of CDK7) in A549 cells; experiment: Imaging-based cellular RNA PolII Ser5 phosphorylation assay in A549 cells; format: cell-based, human; settings: wild-type CDK7, RNA PolII Ser5 phosphorylation, averaged over all measurements; for IC50: Homo sapiens, A549, A549 cells, read-out: CDK7_A549 Wild-type CDK7 (pIC50) (converted)
How it was run: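 IC50 derived by fitting % control (DMSO high, 10 μM reference low) against concentration, with Hill slope. Readout: high-content imaging of phospho-Ser5 Rpb1 CTD antibody staining in fixed, permeabilized A549 cells exposed to compound 3 h after 20 h culture in 1% FBS DMEM.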

[2] = tested on: RNA Polymerase II Serine 5 phosphorylation in A549 cells overexpressing CDK7-mutant (C312S); experiment: Imaging-based cellular RNA PolII Ser5 phosphorylation assay in A549 cells overexpressing CDK7-mutant (C312S); format: cell-based, human; settings: RNA PolII Ser5 phosphorylation, averaged over all measurements; for IC50: Homo sapiens, A549, A549 cells overexpressing CDK7-mutant (C312S), read-out: CDK7_A549 mutant hCDK7(pIC50) (converted)
How it was run: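 Readout was automated imaging of anti-phospho-Ser5 Rpb1 CTD immunofluorescence, with IC50 fitted to % control versus concentration. Cells were A549 stably overexpressing non-covalently targetable CDK7 C312S alongside wild-type, exposed to compound 3 h at 37 °C. DMSO and 10 μM reference compound served as controls.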

[3] = target: CDK7/cyclinH/MAT1 trimeric complex (Homo sapiens, UniProt P50613); experiment: In vitro CDK7 assay, potency of irreversible covalent inhibitors (kinact/KI), coupled PK/LDH ADP readout at 340 nm
[4] = CDK7 (20 nM enz.) (KI, μM), 20 nM enzyme
[5] = read-out: CDK7 (20 nM enz.) (kinact, s^−1), 20 nM enzyme
[6] = read-out: CDK7 (20 nM enz.) (kinact/KI, M^−1*s^−1), 20 nM enzyme
[7] = CDK7 (KI(μM)), […], 1 mM ATP, room temperature, averaged values over all measurements
[8] = read-out: CDK7 (kinact, s^−1), kinact = maximal rate of inactivation, 1 mM ATP, room temperature, averaged values over all measurements
[9] = read-out: CDK7 (kinact/KI, M^−1*s^−1), potency of irreversible covalent inhibitors, 1 mM ATP, room temperature, averaged values over all measurements

Sequence of CDK7/cyclinH/MAT1 trimeric complex (P50613 whole entry): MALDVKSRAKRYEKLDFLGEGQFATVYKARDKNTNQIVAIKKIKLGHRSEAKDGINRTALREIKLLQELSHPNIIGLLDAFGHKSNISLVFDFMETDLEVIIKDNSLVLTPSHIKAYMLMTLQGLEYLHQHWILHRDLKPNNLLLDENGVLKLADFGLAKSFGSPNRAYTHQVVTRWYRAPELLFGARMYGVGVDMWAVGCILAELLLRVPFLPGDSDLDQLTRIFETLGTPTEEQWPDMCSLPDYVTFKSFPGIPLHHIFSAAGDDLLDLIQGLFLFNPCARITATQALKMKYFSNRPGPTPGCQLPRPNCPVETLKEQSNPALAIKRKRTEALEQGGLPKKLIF
Sequence of CDK7/cyclinH/MAT1 trimeric complex (P51946 whole entry partner): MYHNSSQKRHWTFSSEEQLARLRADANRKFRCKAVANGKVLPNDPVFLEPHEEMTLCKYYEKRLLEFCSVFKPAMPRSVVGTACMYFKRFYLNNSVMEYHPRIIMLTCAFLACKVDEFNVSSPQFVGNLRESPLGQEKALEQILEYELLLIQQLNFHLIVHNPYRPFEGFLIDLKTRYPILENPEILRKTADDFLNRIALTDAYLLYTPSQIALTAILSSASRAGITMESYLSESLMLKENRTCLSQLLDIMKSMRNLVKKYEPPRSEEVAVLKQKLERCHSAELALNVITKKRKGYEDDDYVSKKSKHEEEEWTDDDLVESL
Sequence of CDK7/cyclinH/MAT1 trimeric complex (P51948 whole entry partner): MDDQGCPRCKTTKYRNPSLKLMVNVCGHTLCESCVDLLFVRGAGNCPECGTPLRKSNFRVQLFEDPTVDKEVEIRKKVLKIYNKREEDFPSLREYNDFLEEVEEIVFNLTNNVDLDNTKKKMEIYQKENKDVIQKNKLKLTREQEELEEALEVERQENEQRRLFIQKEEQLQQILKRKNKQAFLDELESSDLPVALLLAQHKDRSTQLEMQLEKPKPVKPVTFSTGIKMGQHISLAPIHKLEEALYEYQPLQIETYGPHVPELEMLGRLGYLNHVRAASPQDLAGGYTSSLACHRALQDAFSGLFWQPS

Structure (SMILES)	IC50 [1] [nM]	IC50 [2] [nM]	Ki [3, 4] [µM]	kinact [3, 5] [s⁻¹]	kinact/KI [3, 6] [M⁻¹ s⁻¹]	kinact/KI ([3]; read-out: CDK7 (20 nM enz.) (kobs/[I], M^−1*s^−1), 20 nM enzyme) [M⁻¹ s⁻¹]	CDK7 (20 nM enz.) (kinact/KI, M^−1*s^−1) ([3]; 20 nM enzyme) [M⁻¹ s⁻¹]	CDK7_A549 Wild-type CDK7 (pIC50) ([1]; A549 cells)	CDK7_A549 mutant hCDK7(pIC50) ([2]; A549 cells overexpressing CDK7-mutant (C312S))	CDK7 (20 nM enz.) (kobs/[I], M^−1*s^−1) ([3]; 20 nM enzyme) [M⁻¹ s⁻¹]	Ki [3, 7] [µM]	kinact [3, 8] [s⁻¹]	kinact/KI [3, 9] [M⁻¹ s⁻¹]
C=CC(=O)N1CCC(N2CCC(c3cc4c(c(C)n3)O[C@@H](C)c3c(N5CCOCC5)ccnc3N4)CC2)CC1 (single isomer, unassigned) [Compound 411]	288	> 10000	3.4	0.000106	31.3								
CCOC(=O)/C=C/C(=O)N1CC(N2CCC(c3cc4c(c(C)n3)OCc3c(-c5cnn(C)c5)ccnc3N4)CC2)C1 [Compound 435]	69.2	> 10000				856							
C=CC(=O)N1CCC(N2CC(c3cc4c(c(C(F)(F)F)n3)OCc3c(N5CCOCC5)ccnc3N4)C2)CC1 [Compound 359]	102	2820	0.028	2.79e-05			994.882						
C=CC(=O)Nc1ccc(-c2ccc3c(c2)Nc2nccc(N4CCOCC4)c2CO3)cn1 [Compound 26]								7.65	~5.1	1343.33	0.063	0.000102	1620
C=CC(=O)N1CC[C@H](N2CC(c3cc4c(c(C(F)(F)F)n3)O[C@@H](C)c3c(N5CCOCC5)ccnc3N4)C2)C1 (single isomer, unassigned) [Compound 500]	1200	> 10000			12.7								
C=CC(=O)N1CC[C@@H](N2CC(c3cc(C)c4c(c3)Nc3nccc(-c5cnn(C)c5)c3CO4)C2)C1 (single isomer, unassigned) [Compound 362]	58.9	10000	0.0325	6.59e-05	2030								
CC#CC(=O)N1CC(N2CC[C@@H](c3cc4c(c(C)n3)O[C@H](C)c3c(N5CCOCC5)ccnc3N4)C2)C1 (single isomer, unassigned) [Compound 308]	447	> 10000	0.434	1.51e-05	34.8								
C=CC(=O)N1CC(N2CCC(c3ccc4c(c3)Nc3nccc(N5CCOCC5)c3[C@H](C)O4)CC2)C1 (single isomer, unassigned) [Compound 92]	126	> 10000	0.0777	4.72e-05	622								
C=CC(=O)N1CC(N2CCC(c3cc4c(c(C(=O)NC)c3)OCc3c(C5CCOCC5)ccnc3N4)CC2)C1 [Compound 135]	263	~7080	0.0578	5.71e-05	988								
CC#CC(=O)N1CCC(N2CC(c3cc4c(c(C#N)n3)O[C@@H](C)c3c(C5CCOCC5)ccnc3N4)C2)CC1 (single isomer, unassigned) [Compound 518]	64.6	4070	0.0075	3.26e-05	4340								
CC#CC(=O)N1CCC(N2CC(c3cc(C#N)c4c(c3)Nc3nccc(N5CCOCC5)c3[C@H](C)O4)C2)C1 (mixture of isomers) [Compound 494]	4070	> 10000			3.14								
C=CC(=O)N1CC(N2CCC(c3ccc4c(c3)Nc3ncc(C#N)c(N5CCOCC5)c3CO4)CC2)C1 [Compound 45]	1150	> 10000									0.123	0.000137	1110
C=CC(=O)N1CC[C@@H](N2CC(c3cc(C)c4c(c3)Nc3nccc(-c5cnn(C)c5)c3CO4)C2)[C@@H](F)C1 (mixture of isomers) [Compound 201]	89.1	~10000	0.0701	3.6e-05	514								
